ChEMBL document CHEMBL6103565, “Current strategies in design and synthesis of antifungals hybrid and chimeric diazine derivatives” (Bioorg Med Chem, 2025)
Values after ≈ are worked out from the molar mass of the structure shown.

Legend:
Sclerotinia sclerotiorum = test: Fungicidal activity against Sclerotinia sclerotiorum assessed as fungal inhibitory rate at 200 ug/ml relative to control; assay type: functional
Fusarium graminearum = test: Fungicidal activity against Gibberella zeae assessed as fungal inhibitory rate at 200 ug/ml relative to control; assay type: functional
Botryosphaeria dothidea = test: Fungicidal activity against Botryosphaeria dothidea assessed as fungal inhibitory rate at 200 ug/ml relative to control; assay type: functional
Candida albicans [1] = test: Antifungal activity against Candida albicans ATCC 90028 assessed as reduction in microbial growth; assay type: functional
Nakaseomyces glabratus [2] = test: Antifungal activity against Candida glabrata ATCC 90030 assessed as reduction in microbial growth; assay type: functional
Candida tropicalis [3] = test: Antifungal activity against Candida tropicalis ATCC 750 assessed as reduction in microbial growth; assay type: functional
Nakaseomyces glabratus [4] = test: Antifungal activity against Candida glabrata ATCC 90030 assessed as diameter of zone of inhibition; assay type: functional
Candida tropicalis [5] = test: Antifungal activity against Candida tropicalis ATCC 750 assessed as diameter of zone of inhibition; assay type: functional
Candida albicans [6] = test: Antifungal activity against Candida albicans ATCC 90028 assessed as diameter of zone of inhibition; assay type: functional
Candida albicans [7] = test: Antifungal activity against Candida albicans MTCC 227 by disc diffusion method; assay type: functional, organism-based
Aspergillus niger [8] = test: Antifungal activity against Aspergillus niger MTCC 282 by disc diffusion method; assay type: functional, organism-based
Aspergillus niger [9] = test: Antifungal activity against Aspergillus niger MTCC 282 assessed as reduction in microbial growth after 48 hrs by broth dilution method; assay type: functional
Aspergillus clavatus = test: Antifungal activity against Aspergillus […] MTCC 1323 assessed as reduction in microbial growth after 48 hrs by broth dilution method; assay type: functional
Candida albicans [10] = test: Antifungal activity against Candida albicans MTCC 227 assessed as reduction in microbial growth after 48 hrs by broth dilution method; assay type: functional

## Cc1ncc(NC(=O)c2cc(Cl)nn2-c2ncccc2Cl)c(-c2noc(C)n2)n1
Sclerotinia sclerotiorum
  inhibition at 200 µg/mL: 54.1%
Fusarium graminearum
  inhibition at 200 µg/mL: 54.9%
Botryosphaeria dothidea
  inhibition at 200 µg/mL: 85.9%

## Cc1ccc(C2C3=C(N=C4SC=CN42)[C@@]2(C)CC[C@H]4[C@@H](CC=C5C[C@@H](O)CC[C@@]54C)[C@@H]2C3)cc1 (some centres undefined)
Candida albicans [1]
  MIC: 700 µg/mL
Nakaseomyces glabratus [2]
  MIC: > 1000 µg/mL
Candida tropicalis [3]
  MIC: > 1000 µg/mL
Nakaseomyces glabratus [4]
  inhibition zone (IZ): 15 mm
Candida tropicalis [5]
  inhibition zone (IZ): 15 mm
Candida albicans [6]
  inhibition zone (IZ): 13 mm

## CC(=O)N1N=C(C2=C(C)NC(=O)NC2c2ccc(F)cc2)OC1c1ccc([N+](=O)[O-])cc1 (centres undefined)
Candida albicans [7]
  EC50: 0.14 µg/mL (≈ 0.319 µM)
Aspergillus niger [8]
  EC50: 0.14 µg/mL (≈ 0.319 µM)
Aspergillus niger [9]
  MIC: 50 µg/mL
Aspergillus clavatus
  MIC: 50 µg/mL
Candida albicans [10]
  MIC: 100 µg/mL
